Measured values: patent US5391800A, “Method for inhibition of cell motility by sphingosine-1-phosphate, its derivatives and mimetics and method of synthesizing sphingosine-1-phosphate and its derivatives” (The Biomembrane Institute, priority 1993, dated 1995)
“Also recorded” adds a separate entry of the source.

Legend:
[1] = tested on: PKC of B16/F1 melanoma cells; assay: PKC activity of B16/F1 melanoma cells (32P incorporation into histone IIIS); assay type: biochemical, mouse; conditions: for Inhibitory effect on PKC activity: B16/F1 cells; for % PKC activity: control = 100%, mean ± S.E., n = 3; for PKC inhibition: concentration not given
Protocol: Effects of SPN derivatives on protein kinase C activity and cell growth of B16/F1 cells was also investigated. […] Toxicity of these compounds to B16/F1 cells and human neutrophils was also examined using a trypan blue exclusion assay after 1 hour incubation with the compounds.
*Mean ± S.E. (n = 3). For controls (defined as 100%), PKC activity was
33225 cpm per tube per 20 min, as measured by ^32 P incorporation int

[2] = tested on: B16/F1 melanoma cells; assay: Growth of B16/F1 melanoma cells (cell count after 48 hr); assay type: cell-based, mouse; conditions: for Growth-inhibitory effect / activity at 10 µM: 10 μM; for Growth-inhibitory effect: B16/F1 cells
Protocol: *Mean ± S.E. (n = 3). For controls (defined as 100%), cell number was
10^5 cells were seeded and
cultured on a 35 mm plastic dish in Dulbecco's modified Eagle's medium
containing 2% fetal bovine serum in the presence or absence of SPN
derivatives. 48 hr later, cells were counted.

[3] = tested on: B16/F1 melanoma cells; assay: Chemotactic motility of B16/F1 cells through MATRI-GEL-coated transwell filter; assay type: cell-based, mouse; conditions: for % motility: percent relative to control, n = 3 or 4, concentration not given
Protocol: (§1) The assays for determining chemotactic cell motility and chemoinvasion can be performed using transwell plates with a polycarbonate membrane filter (pore size 8 μm) (Costar Scientific, Cambridge, Mass.). Aliguots, e.g., 50 μl, of an aqueous solution of MATRI-GEL (Collaborative Research, Bedford, Mass.) containing SPN-1-P or other inhibitor (e.g., 20 μg/ml for chemotactic motility assay or 200 μg/ml for chemoinvasion assay), is added to each well and dried overnight. The filter is then fitted onto the lower chamber plate. The lower chamber can contain conditioned medium (CM) (i.e., medium used for splenic stromal cell culture, and containing motility factor secreted by these cells), e.g., 0.6 ml, with or without SPN-1-P or other inhibitor. To the upper chamber is added, e.g., about 100 μl, of cell suspension (5×10^4 cells/ml for invasion assay, 5×10^5 cells/ml for motility assay), which is then incubated in 5% CO2 at 37° C. for 70-72 hours (invasion assay) or 20 hours (motility assay). After incubation, cells remaining in the upper chamber are wiped off with a cotton swab, and cells which had migrated to the lower chamber side of the filter are fixed in methanol for 30 seconds and stained with 0.05% toluidine blue. The filter is removed, the stain is solubilized in 10% acetic acid (e.g., 0.1 ml for invasion assay, 0.5 ml for motility assay), and color intensity (optical density) is quantitated by ELISA reading at 630 nm. Using SPN-1-P, a linear relationship was observed between cell number and toluidine blue optical density (FIG. 7).
(§2) Assays were performed using transwell plates with polycarbonate membrane filters (pore size 8 μm) (Costar Scientific, Cambridge, Mass.). 50 μl aliguots of an aqueous solution of MATRI-GEL (Collaborative Research, Bedford, Mass.) containing 20 μg/ml (for chemotactic motility assay) or 200 μg/ml (for chemoinvasion assay) were added to each well and dried overnight. The filter was fitted onto the lower chamber plate. The lower chamber contained 0.6 ml conditioned medium (CM) (i.e., medium used for splenic stromal cell culture, and containing motility factor secreted by these cells) with or without the suspected inhibitor. To the upper chamber was added 100 μl of cell suspension (5×10^4 cells/ml for invasion assay, 5×10^5 cells/ml for motility assay), which was then incubated in 5% CO2 at 37° C. for 70-72 hours (invasion assay) or 20 hours (motility assay). After incubation, cells remaining in the upper chamber were wiped off with a cotton swab, and cells which had migrated to the lower chamber side of the filter were fixed in methanol for 30 seconds and stained with 0.05% toluidine blue. The filter was removed, the stain was solubilized in 10% acetic acid (0.1 ml for invasion assay, 0.5 ml for motility assay), and color intensity (optical density) was quantitated by ELISA reading at 630 nm. A linear relationship was observed between cell number and toluidine blue optical density (FIG. 7.).
In experiments with different quantities of MATRI-GEL, cell migration through transwell filter was maximal with 1 μg/well was applied, and when CM was used (FIG. 8). Therefore, chemotactic cell motility, as affected by various SPN derivatives, was assayed under these conditions.
*Mean ± S.E. of percent relative to control (n = 4). Actual O.D. value
and 0.147 (HT1080). 6 × 10^4 cells were placed on a transwell
filter coated with 1.0 μg MATRIGEL in the upper chamber, and cultured
for 18 hours in the presence of CM and SPN1-P in the lower chamber.

[4] = tested on: B16/F1 melanoma cells; assay: Chemoinvasion of B16/F1 cells through thick MATRI-GEL layer on transwell filter; assay type: cell-based, mouse; conditions: for Effect on invasion compared with SPN-1-P: FIG. 10; for % invasion: percent relative to control, mean ± S.E., n = 3 or 4, concentration not given, 4200 min
Protocol: as §1, §2
Chemoinvasion was measured by the ability of tumor cells in CM (as described above) to migrate through a thick layer of MATRI-GEL during a prolonged incubation period (70 hours). This property is distinct from chemotactic cell motility, which involves a much shorter incubation period (20 hours) and a thin layer of MATRI-GEL. For the chemoinvasion assay, 10 μg of MATRI-GEL was applied to a polycarbonate transwell filter and migration was observed following 70 hours incubation (based on results shown in FIG. 8).

[5] = tested on: B16/F10 melanoma cells; assay: Phagokinetic activity of B16/F10 melanoma cells on gold sol-coated plates; assay type: cell-based, mouse; conditions: for Cleared area: mean ± S.D., n > 50; for Area cleared by B16/F10 tumor cells: SPN-1-P at 1.0 or 0.1 μM
Protocol: Phagokinetic activity is measured by the ability of cells to ingest foreign particles while moving. […] A uniform coating of gold particles is prepared on glass coverslips precoated with bovine serum albumin, and coverslips are rinsed repeatedly to remove non-adhering or loosely-adhering gold particles. Freshly-prepared neutrophils or tumor cells detached from culture are placed in a Petri dish containing the gold sol-coated plate, and incubated for about 2 hours (for human neutrophils) or about 18 hours (for tumor cells). The coverslips are fixed for 1 hour in a 4% formaldehyde solution in phosphate-buffered saline (PBS) and mounted on microscope slides. The phagokinetic tracks are observed on a television connected to a light microscope (Nikon, Tokyo, Japan). Tracks on the television are transferred to translucent sheets, which are then photocopied. Phagokinetic activity is quantitated by cutting and weighing the swept area in the copy.
A uniform coating of gold particles was prepared on glass coverslips precoated with bovine serum albumin, and the coverslips were rinsed repeatedly to remove non-adhering or loosely-adhering gold particles. Freshly-prepared neutrophils or tumor cells detached from culture were placed in a Petri dish containing the gold sol-coated plate, and incubated for 2 hours (for human neutrophils) or 18 hours (for tumor cells). The coverslips were fixed for 1 hour in 4% formaldehyde solution in phosphate-buffered saline (PBS) and mounted on microscope slides. The phagokinetic tracks were observed on a television connected to a light microscope (Nikon, Tokyo, Japan). Tracks on the television were transferred to translucent sheets, which were then photocopied. Phagokinetic activity was quantitated by cutting and weighing the swept area in the copy.

[6] = Mus musculus, B16-F1, 48 hr, control = 100%, mean ± S.E., n = 3
[7] = Mus musculus, B16-F10, 1.0 μM, 18 hours, read-out: % of control (CM+) value
[8] = comparison with other sphingolipids

CCCCCCCCCCCCC/C=C/[C@@H](O)[C@H](CO)[N+](C)(C)C [TMS, N,N,N-trimethylsphingosine]
Inhibitory effect on PKC activity ([1]; 75 μM): strong inhibitory effect
% PKC activity ([1]; 75 μM): 16 ± 3%
PKC inhibition [1]: in striking contrast to DMS and TMS, SPN-1-P does not inhibit PKC
Growth-inhibitory effect [2]: strong
activity at 1 µM [2, 6]: 88 ± 7%
activity at 5 µM [2, 6]: 77 ± 8%
activity at 10 µM [2, 6]: 11 ± 1%
Inhibition of motility ([3]; 10^-5 M, 20 hour): only weak inhibition of motility
% motility ([3]; mean ± S.E.): 100 ± 19%
Effect on invasion compared with SPN-1-P ([4]; 70 hours): weaker effect
% invasion [4]: 75 ± 8%
Cleared area less control (CM-) value ([5]; 1.0 μM, 18 hours): 3.5 × 10^3 μm^2
Cleared area ([5]; 1.0 μM, 18 hours): 5.6 ± 2.7 × 10^3 μm^2
activity at 1 µM [5, 7]: 73%
Area cleared by B16/F10 tumor cells [5]: reduced the area cleared by tumor cells

CCCCCCCCCCCCC/C=C/[C@@H](O)[C@@H](N)COP(=O)(O)O [SPN-1-P, sphingosine-1-phosphate]
% PKC activity ([1]; 10 μM): 121 ± 10%
Inhibitory effect on PKC activity ([1]; 75 μM): no inhibitory effect
% PKC activity ([1]; 75 μM): 108 ± 32%
PKC inhibition [1]: does not inhibit PKC
Growth-inhibitory effect [2]: no growth-inhibitory effect
activity at 0.01 µM ([2]; Mus musculus, B16-F1, 0.01 μM, 48 hr, control = 100%, mean ± S.E., n = 3): 103 ± 10%
activity at 0.1 µM ([2]; Mus musculus, B16-F1, 0.1 μM, 48 hr, control = 100%, mean ± S.E., n = 3): 97 ± 5%
activity at 1 µM [2, 6]: 105 ± 10%
activity at 5 µM [2, 6]: 96 ± 2%
activity at 10 µM [2, 6]: 87 ± 10%
Inhibition of B16/F1 motility, comparison ([3]; FIG. 9, 20 hour): inhibited most strongly; also recorded: same dose-dependent inhibitory effect on cell motility
inhibition at 0.1 µM ([3]; Mus musculus, B16-F1, 10^-7 M, 20 hour, CM, lower chamber, read-out: Motility blocked): 100%
inhibition at 0.01 µM ([3]; Mus musculus, B16-F1, 10^-8 M, 20 hour, CM, lower chamber, read-out: Motility blocked): 90%
activity at 0.001 µM ([3]; Mus musculus, B16-F1, F1, 0.001 μM, 18 hours, relative to control, mean ± S.E., n = 4): 82 ± 44%
activity at 0.01 µM ([3]; Mus musculus, B16-F1, F1, 0.01 μM, 18 hours, relative to control, mean ± S.E., n = 4): 12 ± 7%
activity at 0.1 µM ([3]; Mus musculus, B16-F1, F1, 0.1 μM, 18 hours, relative to control, mean ± S.E., n = 4): 6 ± 2%
activity at 1 µM ([3]; Mus musculus, B16-F1, F1, 1.0 μM, 18 hours, relative to control, mean ± S.E., n = 4): 8 ± 2%
Susceptibility of B16/F1 cells (chemotactic motility) ([3]; Table V, in words): high
Inhibition of cell motility compared with other sphingolipids [3, 8]: much stronger than that for SPN, N,N-dimethylsphingosine (DMS), or N,N,N-trimethylsphingosine (TMS); also recorded: unexpectedly superior inhibition
% motility ([3]; mean ± S.E.): 5 ± 1%
Inhibition of invasion ([4]; 10^-8 or 10^-7 M, 70 hours): strongly inhibited
Inhibition of chemoinvasion compared with other sphingolipids [4, 8]: unexpectedly superior inhibition
Cleared area less control (CM-) value ([5]; 0.0001 μM, 18 hours): 3.9 × 10^3 μm^2
Cleared area ([5]; 0.0001 μM, 18 hours): 6.0 ± 2.7 × 10^3 μm^2
Cleared area less control (CM-) value ([5]; 0.01 μM, 18 hours): 2.0 × 10^3 μm^2
Cleared area ([5]; 0.01 μM, 18 hours): 4.1 ± 1.4 × 10^3 μm^2
Cleared area less control (CM-) value ([5]; 0.1 μM, 18 hours): 1.3 × 10^3 μm^2
Cleared area ([5]; 0.1 μM, 18 hours): 3.4 ± 1.3 × 10^3 μm^2
Cleared area less control (CM-) value ([5]; 1.0 μM, 18 hours): 0.3 × 10^3 μm^2
Cleared area ([5]; 1.0 μM, 18 hours): 2.4 ± 1.1 × 10^3 μm^2
activity at 0.0001 µM ([5]; Mus musculus, B16-F10, 0.0001 μM, 18 hours, read-out: % of control (CM+) value): 81%
activity at 0.01 µM ([5]; Mus musculus, B16-F10, 0.01 μM, 18 hours, read-out: % of control (CM+) value): 42%
activity at 0.1 µM ([5]; Mus musculus, B16-F10, 0.1 μM, 18 hours, read-out: % of control (CM+) value): 27%
activity at 1 µM [5, 7]: 6%
Area cleared by B16/F10 tumor cells [5]: greatly reduced

CCCCCCCCCCCCC/C=C/[C@@H](O)[C@@H](N)CO [SPN, sphingosine]
Inhibitory effect on PKC activity ([1]; 75 μM): strong inhibitory effect
% PKC activity ([1]; 75 μM): 34 ± 7%
Growth-inhibitory effect [2]: moderate growth-inhibitory effect
activity at 1 µM [2, 6]: 101 ± 1%
activity at 5 µM [2, 6]: 87 ± 10%
activity at 10 µM [2, 6]: 78 ± 4%
inhibition at 10 µM ([3]; Mus musculus, B16-F1, 20 h, read-out: Motility blocked): 100%
Effect on invasion compared with SPN-1-P ([4]; 70 hours): weaker effect
% invasion [4]: 16 ± 7%
Cleared area less control (CM-) value ([5]; 1.0 μM, 18 hours): 0.4 × 10^3 μm^2
Cleared area ([5]; 1.0 μM, 18 hours): 2.5 ± 1.0 × 10^3 μm^2
activity at 1 µM [5, 7]: 8%
Area cleared by B16/F10 tumor cells [5]: reduced the area cleared by tumor cells
